In US20260207798A1, “CYCLIC PEPTIDES AS PET IMAGING AGENTS OF GRANZYME B” (priority 2022, published 2026):
pIC50, pKd: −log10 of the molar value. Numbered stars: 1 amine (or outer) side, 2 acyl side, 3 side chain; on linkers, the order of the positions; unused ones are H or OH. Bridge positions count the residues as written; N and C are the ends. Square brackets hold non-standard residues; d marks the D form. Peptide text beside a SMILES is read from it. I, II: the chains in the order shown. Pro(trans-4-F) = O=C(O)[C@@H]1C[C@@H](F)CN1; X2 = O=C(CCOCCOCCC(=O)[*:2])[*:1]

Legend:
[1] = molecular target: human Granzyme B (hGranzyme B) (Homo sapiens, UniProt P10144); test: Surface plasmon resonance (SPR) binding kinetics to hGranzyme B; conditions: 25° C., 1:1 binding model, KD=kd/ka; read-out: Granzyme B SPR Kd
In short: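 Biotinylated hGranzyme B captured on streptavidin chip (~1100 RU), reference-spot subtracted. Single-cycle kinetics at 25 °C in HBS-EP+ with 2% DMSO: five 3-fold peptide concentrations, 0.01–1 µM, 120 s association, 900 s dissociation. Fit to a 1:1 model for ka and kd, with KD = kd/ka.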

[2] = molecular target: Human Granzyme B (Homo sapiens, UniProt P10144); test: Granzyme B biochemical inhibition assay (fluorescence); conditions: 8 nM granzyme B; values below 8 nM reported as <8 nM
Experimental: Compounds to be tested as inhibitors were manually prepared in a 2-fold serial dilutions in DMSO, spanning 200 uM to 0.39 uM in a Labcyte Echo qualified low dead volume 384-well plate. Then an ECHO acoustic liquid handler was used to dispense 125 nL of each compound from 384-well plate into a PerkinElmer Proxiplate-384 Plus F assay plate. For the positive control of inhibitor, (S)-3-((3S,6S)-3-((2S,3S)-2-acetamido-3-methylpentanamido)-4-oxo-1,2,3,4,6,7-hexahydroazepino[3,2,1-hi]indole-6-carboxamido)-4-oxobutanoic acid (see C. A. Willoughby et al./Bioorg. Med. Chem. Lett. 12 (2002) 2197-2200 2199) was used at 2 uM assay concentration. For no inhibition control, DMSO was used. Each compound was run in duplicate.
Once the compounds were dispensed in the plates, enzyme mix and substrate mix were prepared. Enzyme mix was prepared by preparing a mixture of 300 uL granzyme B (final concentration 8 nM) and 10.8 mL of assay buffer (from Sigma kit). Substrate mix was prepared by combining 500 uL substrate (from Sigma kit) and 3 mL of assay buffer (from Sigma kit). Enzyme mixture was loaded on BioRaptr and 9.25 uL were added to each well of the assay plate containing compounds. The plate was incubated at room temperature under a metal gasket cover for 30 minutes. Subsequently, 3.125 uL of substrate mix were added to each well using the BioRaptr, reaching a final assay volume of 12.5 uL, and the plate was monitored using a Pherastar FS by 1 read per minute for 30 minutes in fluorescence mode, excitation wavelength is 400 nm and emission wavelength is 510 nm.
The data analysis was performed first in excel, where the slopes of the measured fluorescence from each sample were determined using MARS software from BMG LABTECH. These rates were then multiplied by 10,000 for visualization purposes. The rates, multiplied by 10,000, were normalized to 0% and 100% activity based on the average values of the samples with either 2 uM inhibitor (S)-3-((3S,6S)-3-((2S,3S)-2-acetamido-3-methylpentanamido)-4-oxo-1,2,3,4,6,7-hexahydroazepino[3,2,1-hi]indole-6-carboxamido)-4-oxobutanoic acid, or no inhibitor respectively. All samples were then normalized against these values using the formula={100−[(sample−100% inhib)/0% inhib]}*100 to achieve a normalized percent inhibition. Normalized percent inhibition versus concentration inhibitor was then plotted in Graphpad Prism version 9.0.0 and a variable slope (four parameters) fit was calculated for each inhibitor.

[3] = rhesus monkey, in vivo

Chain of Human Granzyme B (P10144 21-247): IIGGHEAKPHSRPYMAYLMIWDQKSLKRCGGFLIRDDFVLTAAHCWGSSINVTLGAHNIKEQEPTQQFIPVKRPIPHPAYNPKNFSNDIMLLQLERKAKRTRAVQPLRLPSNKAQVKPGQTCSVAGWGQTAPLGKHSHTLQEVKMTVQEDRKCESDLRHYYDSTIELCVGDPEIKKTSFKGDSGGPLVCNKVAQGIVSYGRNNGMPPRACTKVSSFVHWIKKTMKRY

Row | Structure (SMILES) | pKd [1] | pIC50 [2] | route of clearance [3] | tissues of highest uptake [3]
1 | C[C@@H]1NC(=O)[C@H](CO)NC(=O)[C@H](CCC(N)=O)NC(=O)[C@H](CC(=O)O)NC(=O)[C@H](CCC(=O)O)NC(=O)[C@H](Cc2ccccc2)NC(=O)[C@H](CC(N)=O)NC(=O)[C@H](Cc2ccccc2)NC(=O)CSC[C@@H](C(=O)NCC(=O)NCC(=O)N[C@@H](CCCCNC(=O)CCOCCOCCC(=O)NCCCC[C@H](NC(=O)CNC(=O)CNC(=O)[C@@H]2CSCC(=O)N[C@@H](Cc3ccccc3)C(=O)N[C@@H](CC(N)=O)C(=O)N[C@@H](Cc3ccccc3)C(=O)N[C@@H](CCC(=O)O)C(=O)N[C@@H](CC(=O)O)C(=O)N[C@@H](CCC(N)=O)C(=O)N[C@@H](CO)C(=O)N[C@@H](C)C(=O)N[C@@H](CC(=O)O)C(=O)N[C@@H]([C@@H](C)O)C(=O)N[C@@H](Cc3c[nH]c4ccccc34)C(=O)N[C@@H](CCC(N)=O)C(=O)N3CCC[C@H]3C(=O)N2)C(N)=O)C(N)=O)NC(=O)[C@@H]2CCCN2C(=O)[C@H](CCC(N)=O)NC(=O)[C@H](Cc2c[nH]c3ccccc23)NC(=O)[C@H]([C@@H](C)O)NC(=O)[C@H](CC(=O)O)NC1=O [Compound 5a, *F.N.F.E.D.Q.S.A.D.T.W.Q.P.*C.G.G.K.NH2)-PEG2-(*F.N.F.E.D.Q.S.A.D.T.W.Q.P.*C.G.G.K.NH2)] (I: {CH2CO}-FNFEDQSADTWQPCGGK-NH2 / II: {CH2CO}-FNFEDQSADTWQPCGGK-NH2; linker I:17-II:17 via X2; thioether I:N-I:14, II:N-II:14) | > 9.52 | > 8.10 | – | –
2 | C[C@@H](O)[C@@H]1NC(=O)[C@H](CC(=O)O)NC(=O)[C@@H]2C[C@@H](F)CN2C(=O)[C@H](CO)NC(=O)[C@H](CCC(N)=O)NC(=O)[C@H](CC(=O)O)NC(=O)[C@H](CCC(=O)O)NC(=O)[C@H](Cc2ccccc2)NC(=O)[C@H](CC(N)=O)NC(=O)[C@H](Cc2ccccc2)NC(=O)CSC[C@@H](C(=O)NCC(=O)NCC(=O)N[C@@H](CCCCNC(=S)Nc2ccc(CC3CN(CC(=O)O)CCN(CC(=O)O)CCN3CC(=O)O)cc2)C(N)=O)NC(=O)[C@@H]2CCCN2C(=O)[C@H](CCC(N)=O)NC(=O)[C@H](Cc2c[nH]c3ccccc23)NC1=O (some centres unmarked) [Compound 19a, *F.N.F.E.D.Q.S.Prot4F.D.T.W.Q.P.*C.G.G.K(^68Ga-NOTA-1).NH2, metal not drawn] | – | – | primarily cleared through renal excretion | highest uptake observed in urine/urinary bladder and kidney
3 | C[C@@H](O)[C@@H]1NC(=O)[C@H](CC(=O)O)NC(=O)[C@@H]2C[C@@H](F)CN2C(=O)[C@H](CO)NC(=O)[C@H](CCC(N)=O)NC(=O)[C@H](CC(=O)O)NC(=O)[C@H](CCC(=O)O)NC(=O)[C@H](Cc2ccccc2)NC(=O)[C@H](CC(N)=O)NC(=O)[C@H](Cc2ccccc2)NC(=O)CSC[C@@H](C(=O)NCC(N)=O)NC(=O)[C@@H]2CCCN2C(=O)[C@H](CCC(N)=O)NC(=O)[C@H](Cc2c[nH]c3ccccc23)NC1=O [Compound 38a, *F.N.F.E.D.Q.S.Prot4F.D.T.W.Q.P.*C.G.NH2] ({CH2CO}-FNFEDQS[Pro(trans-4-F)]DTWQPCG-NH2; thioether N-14) | – | > 8.10 | – | –
